Experimental data from ChEMBL document CHEMBL1201862, “PubChem BioAssay data set” (2004).
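Protocol summary: plate cells (96-well), add compound at 5 concentrations, incubate 48 h, interpolate endpoints linearly. Here, GI50 denotes the concentration required for 50% inhibition of growth.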 Active and inactive are the calls of the source. Rule as the data show it: active = GI50 up to about 1.1 µM and inactive = higher.

Experiments:
Test in all cases: NCI anticancer screen, dose series, 48 h
OVCAR-3 = test system: OVCAR-3
A498 = test system: A498
HOP-62 = test system: HOP-62
RXF 393 = test system: RXF 393
MDA-N = test system: MDA-N
BT-549 = test system: BT-549
NCI-H522 = test system: NCI-H522
SF-295 = test system: SF-295
RPMI-8226 = test system: RPMI-8226
HCC 2998 = test system: HCC 2998
SK-MEL-28 = test system: SK-MEL-28
A549 = test system: A549
SK-MEL-5 = test system: SK-MEL-5
U-251 = test system: U-251
HCT-116 = test system: HCT-116
MDA-MB-435 = test system: MDA-MB-435
SK-MEL-2 = test system: SK-MEL-2
COLO 205 = test system: COLO 205
NCI-H23 = test system: NCI-H23

| Structure (SMILES) | GI50 (OVCAR-3) | GI50 (A498) | GI50 (HOP-62) | GI50 (RXF 393) | GI50 (MDA-N) | GI50 (BT-549) | GI50 (NCI-H522) | GI50 (SF-295) | GI50 (RPMI-8226) | GI50 (HCC 2998) | GI50 (SK-MEL-28) | GI50 (A549) | GI50 (SK-MEL-5) | GI50 (U-251) | GI50 (HCT-116) | GI50 (MDA-MB-435) | GI50 (SK-MEL-2) | GI50 (COLO 205) | GI50 (NCI-H23) |
| --- | --- | --- | --- | --- | --- | --- | --- | --- | --- | --- | --- | --- | --- | --- | --- | --- | --- | --- | --- |
| Cc1ccc(C2SCC(=O)N2c2ccc(-n3c(-c4ccccc4)nc4ccccc4c3=O)cc2)cc1 (centres undefined) | 13.2 µM (inactive) | 26.1 µM (inactive) | 12.9 µM (inactive) | 22.8 µM (inactive) | 20.9 µM (inactive) | 20.2 µM (inactive) | 13.5 µM (inactive) | 14.7 µM (inactive) | 13.7 µM (inactive) | 17.5 µM (inactive) | 21 µM (inactive) | 25.1 µM (inactive) | 11.6 µM (inactive) | 5.3 µM (inactive) | 7.82 µM (inactive) | 21.1 µM (inactive) | 20.8 µM (inactive) | 30.1 µM (inactive) | 36.4 µM (inactive) |
| CCN(CC)/C(Sc1ccccc1)=C(\C(Cl)=C(Cl)Cl)[N+](=O)[O-] | 16.4 µM (inactive) | 21.1 µM (inactive) | 23.5 µM (inactive) | 13.6 µM (inactive) | 16.9 µM (inactive) | 15.8 µM (inactive) | 12.6 µM (inactive) | 17.6 µM (inactive) | – | 19.5 µM (inactive) | 17.9 µM (inactive) | 21.7 µM (inactive) | 14.1 µM (inactive) | – | 16.4 µM (inactive) | 13.5 µM (inactive) | – | 16.4 µM (inactive) | 13.7 µM (inactive) |
| CC(=O)OCC1OC(n2c3c(cc(C#N)c2=S)CCC3)C(OC(C)=O)C(OC(C)=O)C1OC(C)=O (centres undefined) | – | > 100 µM (inactive) | > 100 µM (inactive) | > 100 µM (inactive) | > 100 µM (inactive) | > 100 µM (inactive) | > 100 µM (inactive) | > 100 µM (inactive) | > 100 µM (inactive) | > 100 µM (inactive) | > 100 µM (inactive) | > 100 µM (inactive) | > 100 µM (inactive) | > 100 µM (inactive) | > 100 µM (inactive) | > 100 µM (inactive) | > 100 µM (inactive) | > 100 µM (inactive) | > 100 µM (inactive) |
| COc1c(Cl)ccc(Cl)c1-c1nnc(-c2c(Cl)c(Cl)c(Cl)c(Cl)c2-c2nc3cc(C(=O)c4ccccc4)ccc3[nH]2)o1 | 53.2 µM (inactive) | 24.8 µM (inactive) | 43.5 µM (inactive) | 20.8 µM (inactive) | 20 µM (inactive) | 76.7 µM (inactive) | 22.9 µM (inactive) | 29.4 µM (inactive) | 23.8 µM (inactive) | – | 47.2 µM (inactive) | 45.2 µM (inactive) | 16.6 µM (inactive) | 61 µM (inactive) | 63.1 µM (inactive) | 21.4 µM (inactive) | 37.7 µM (inactive) | 21.9 µM (inactive) | 78.2 µM (inactive) |
| COc1cccc(C[C@H]2COC(=O)[C@]2(O)Cc2cccc(OC)c2)c1 | 97.5 µM (inactive) | > 100 µM (inactive) | > 100 µM (inactive) | – | > 100 µM (inactive) | > 100 µM (inactive) | 55.7 µM (inactive) | 83 µM (inactive) | 93.3 µM (inactive) | 70.8 µM (inactive) | > 100 µM (inactive) | > 100 µM (inactive) | 50.9 µM (inactive) | > 100 µM (inactive) | > 100 µM (inactive) | > 100 µM (inactive) | > 100 µM (inactive) | > 100 µM (inactive) | > 100 µM (inactive) |
| CCOC(=O)c1cc2cc(CSc3ccccc3)ccc2oc1=O | 96.6 µM (inactive) | – | 51.3 µM (inactive) | 39.4 µM (inactive) | > 100 µM (inactive) | > 100 µM (inactive) | > 100 µM (inactive) | 43.4 µM (inactive) | 51.9 µM (inactive) | 42.6 µM (inactive) | > 100 µM (inactive) | 83.4 µM (inactive) | > 100 µM (inactive) | > 100 µM (inactive) | > 100 µM (inactive) | > 100 µM (inactive) | 92.5 µM (inactive) | > 100 µM (inactive) | > 100 µM (inactive) |
| CC(=O)OCC(OC(C)=O)C(OC(C)=O)C(OC(C)=O)C(/C=N\Nc1nc2ccccc2c(=O)[nH]1)OC(C)=O (centres undefined) | > 100 µM (inactive) | – | > 100 µM (inactive) | > 100 µM (inactive) | > 100 µM (inactive) | > 100 µM (inactive) | > 100 µM (inactive) | > 100 µM (inactive) | > 100 µM (inactive) | > 100 µM (inactive) | > 100 µM (inactive) | > 100 µM (inactive) | > 100 µM (inactive) | > 100 µM (inactive) | > 100 µM (inactive) | > 100 µM (inactive) | > 100 µM (inactive) | > 100 µM (inactive) | > 100 µM (inactive) |
| C[C@H]1[C@@H](c2ccccc2)O[B-](c2ccccc2)(c2ccccc2)[N+]1(C)C | 40.6 µM (inactive) | 86.1 µM (inactive) | > 100 µM (inactive) | 45.5 µM (inactive) | 48.8 µM (inactive) | 33.5 µM (inactive) | 35.7 µM (inactive) | 32.6 µM (inactive) | 31.3 µM (inactive) | – | 48 µM (inactive) | 74.1 µM (inactive) | 28.1 µM (inactive) | > 100 µM (inactive) | 49.7 µM (inactive) | 61.8 µM (inactive) | > 100 µM (inactive) | 16.1 µM (inactive) | 70.1 µM (inactive) |
| O=[N+]([O-])c1nccn1CCCNc1c2ccccc2[n+]([O-])c2ccccc12 | > 100 µM (inactive) | > 100 µM (inactive) | > 100 µM (inactive) | > 100 µM (inactive) | > 100 µM (inactive) | > 100 µM (inactive) | > 100 µM (inactive) | > 100 µM (inactive) | > 100 µM (inactive) | – | > 100 µM (inactive) | > 100 µM (inactive) | > 100 µM (inactive) | > 100 µM (inactive) | > 100 µM (inactive) | > 100 µM (inactive) | 88.5 µM (inactive) | 18.2 µM (inactive) | > 100 µM (inactive) |
| CCOC(=O)C1=C(C)NC(c2ccccc2)=C(C(=O)OCc2ccccc2)C1C#Cc1ccccc1 (centres undefined) | > 100 µM (inactive) | > 100 µM (inactive) | > 100 µM (inactive) | > 100 µM (inactive) | 0.274 µM (active) | > 100 µM (inactive) | – | > 100 µM (inactive) | > 100 µM (inactive) | – | – | – | > 100 µM (inactive) | > 100 µM (inactive) | > 100 µM (inactive) | > 100 µM (inactive) | > 100 µM (inactive) | > 100 µM (inactive) | > 100 µM (inactive) |
| CC1=NN(c2ccc(S(=O)(=O)O)cc2)C(=O)/C1=C/c1ccc(Cl)cc1.c1ccncc1 | > 100 µM (inactive) | > 100 µM (inactive) | > 100 µM (inactive) | > 100 µM (inactive) | > 100 µM (inactive) | > 100 µM (inactive) | > 100 µM (inactive) | > 100 µM (inactive) | > 100 µM (inactive) | – | > 100 µM (inactive) | > 100 µM (inactive) | > 100 µM (inactive) | > 100 µM (inactive) | > 100 µM (inactive) | > 100 µM (inactive) | > 100 µM (inactive) | > 100 µM (inactive) | > 100 µM (inactive) |
| CC(C)=CCC[C@@H](C)C1=C(O)C(=O)C(C)=C(N)C1=O | 27.9 µM (inactive) | 39.8 µM (inactive) | 23.2 µM (inactive) | 32.9 µM (inactive) | 24.6 µM (inactive) | 42.2 µM (inactive) | – | 12.9 µM (inactive) | 27.3 µM (inactive) | 59.6 µM (inactive) | 34.8 µM (inactive) | 25.8 µM (inactive) | 20.4 µM (inactive) | 34.8 µM (inactive) | 45.1 µM (inactive) | 41 µM (inactive) | 29 µM (inactive) | 27.9 µM (inactive) | 27.3 µM (inactive) |
| COc1ccc(N2C(=O)C3c4[nH]c5ccc(C)cc5c4C4CCC(C)CC4C3C2=O)cc1 (centres undefined) | 58.1 µM (inactive) | 21.6 µM (inactive) | – | 20.7 µM (inactive) | > 100 µM (inactive) | > 100 µM (inactive) | 92 µM (inactive) | 27.1 µM (inactive) | > 100 µM (inactive) | – | – | > 100 µM (inactive) | > 100 µM (inactive) | 53.7 µM (inactive) | 36.5 µM (inactive) | > 100 µM (inactive) | 33.3 µM (inactive) | > 100 µM (inactive) | 59 µM (inactive) |
| C=CC(O)C#Cc1cnc(OC)nc1OC (centres undefined) | > 100 µM (inactive) | 16.3 µM (inactive) | > 100 µM (inactive) | > 100 µM (inactive) | > 100 µM (inactive) | > 100 µM (inactive) | 54.2 µM (inactive) | > 100 µM (inactive) | – | > 100 µM (inactive) | > 100 µM (inactive) | > 100 µM (inactive) | > 100 µM (inactive) | > 100 µM (inactive) | 82.8 µM (inactive) | > 100 µM (inactive) | > 100 µM (inactive) | 81.5 µM (inactive) | > 100 µM (inactive) |
| O=C(NCc1cccs1)OC1CC2CCC1C2 (centres undefined) | > 100 µM (inactive) | > 100 µM (inactive) | > 100 µM (inactive) | > 100 µM (inactive) | > 100 µM (inactive) | > 100 µM (inactive) | > 100 µM (inactive) | > 100 µM (inactive) | > 100 µM (inactive) | – | > 100 µM (inactive) | > 100 µM (inactive) | > 100 µM (inactive) | > 100 µM (inactive) | > 100 µM (inactive) | > 100 µM (inactive) | > 100 µM (inactive) | > 100 µM (inactive) | > 100 µM (inactive) |
